Where no end group is shown, it is not given here.

We go through two substances from US20050165225A1, “Novel cytokine isolated from an insect” (priority 2003, published 2005).

Test [1] deals with hemocytes of a fly (Lucilia cuprina). Briefly: Hemocyte aggregation assay. It counts as cell-based. Particulars: 10 nM test substance, incubated for about 20 minutes, L. cuprina larval hemocytes, microscopy (FIG. 2). How it is done: Preparation of Hemolymph for Use in Functional Analysis
Blood (hemolymph) was taken from the 3rd instar flies (Lucilia cuprina) after 24 to 36 hours from molting in an anti-coagulant solution (98 mM NaOH, 186 mM NaCl, 17 mM Na2 EDTA and 41 mM citric acid, pH 4.5). Hemolymph was obtained as sediment by centrifuging at 400 g for one minute, suspended in the anti-coagulation solution, incubated at 4° C. for 30 minutes, and subjected to centrifugal separation at 400 g for one minute to collect hemolymph. The hemolymph thus collected was resuspended in Ex-cell 400 medium (manufactured by JRH bioscience, USA)
Using hemolymph prepared above, an ability of a peptide according to the present invention for aggregating hemocytes was evaluated. 5 μl of a test substance (so as to obtain a final concentration of 10 nM) and 30 μl of a blood cell suspension solution were delivered to 96 wells of a culture plate so as to obtain a cell concentration of 1×10^4 cells/well. As the test substance, a peptide according to the present invention (a final concentration of 10 nM) or bovine serum albumin (a final concentration of 10 nM) as a control was used. The mixture was observed by an inverted phase-contrast microscope (Olympus IX-70) to detect hemocyte aggregation.

The subject of the next test is High five cells. Briefly: Cell proliferation assay ([3H] thymidine incorporation). It counts as cell-based, Trichoplusia ni. Particulars: serum-free Grace's medium, test substance ~1,000 nM, cultured 32 hours (FIG. 3). As for the experimental part: Cultured insect cells of “High five” was purchased from Invitrogen (Holland) and maintained in Grace's medium containing 5% fetus bovine serum. The cells during the exponential growth period were used in the following treatment. After the cells were cultured in a culture solution containing only Grace's medium (with no fetus bovine serum) for 2 days, they were divided into two groups. To one group (novel cytokine group), a peptide according to the present invention was added as a test substance in an amount of ˜1,000 nM. To the other group (control group), bovine serum albumin (BSA) was added as a test substance in an amount of ˜1000 nM. Both groups were cultured for 32 hours in Grace's medium containing 0.5 μCi of [^3H] thymidine. Subsequently, Both groups of cells were washed three times with a phosphate buffered saline (8 mM Na2HPO4, 1.5 mM KH2PO4, 137 mM NaCl, 2.7 mM KCL, pH 7.2). Thereafter, 100 μl of 0.3 N NaOH was added to both groups of cells to lyse the cells. The lysed cells were subjected to the liquid scintillation counter (Aloka LSC-5100 manufactured by Aloka, Japan). In this way, the radioactive count of [^3H] thymidine, which had been incorporated in the cells of each group during culturing, was determined.
(Dividing cells build labelled thymidine or BrdU into new DNA.)

As to “TILSAPSNCQQTDFKGRCL (cysteine pairing not given here) [19-residue peptide cytokine purified from hemolymph of Lucilia cuprina larvae]”, the hemocyte aggregation entry in test [1] was “hemocyte aggregation is observed”. For the same substance, in the test with High five cells, the “[^3H] thymidine incorporation” value is on record as “increased in a pepetide-concentration dependent manner”.

As to “bovine serum albumin (BSA): bovine serum albumin used as a control test substance”, the hemocyte aggregation result in test [1] is recorded as “scattered without causing aggregation”. Further, the “[^3H] thymidine incorporation” value with High five cells is listed as “not increased”.
